According to patent US11787816B2, “Chlorin compound, and preparation and use thereof” (Southwest Jiaotong University, priority 2021, dated 2023):

Assays:
[1] = tested on: human cervical cancer Hela cells; assay: Photosensitizer-mediated PDT, in vitro proliferation (MTT), Hela; format: cell-based; details: for cell viability (%): Hela; for toxicity to the cells when the drug is used alone without photodynamic treatment: summary statement for Hela, huh-7 and 4T1 cells
Procedure: Several kinds of tumor cells (human cervical cancer Hela cells, human hepatocellular carcinoma huh-7 cells and murine mammary carcinoma 4T1 cells) cultured in vitro from a variety of tissues were taken as cell models, so as to investigate the photodynamic effects mediated by different doses of CEFN, CEFO, Ce6 and HPPH on the three different tumor cells (n=3). The specific experimental procedures were carried out as follows.
Cells in the logarithmic growth phase were harvested and seeded in a 24-well plate. After growing to a confluence of 70-80%, the cells were randomly divided into a control group (free of drug and light irradiation), a drug group and a photodynamic group. The CEFN, CEFO, Ce6 and HPPH were added respectively in dark, and for each drug, four final concentrations 1, 2, 5, and 10 μg/mL were set with 3 replicates for each group. After the co-incubation, the groups were treated individually. Regarding the photodynamic group, the light irradiation was performed at a wavelength of 660 nm and three different light intensities, i.e., 2, 4 and 8 J/cm^2. After that, each group was digested, and were inoculated into a 96-well plate at 100 μL per well with 4 replicates for each treatment. 24 hours later, the 96-well plate was subjected to MTT assay as follows. Each well was added with 20 μL of MTT (3-4,5-dimethylthiazol-2,5-diphenyltetrazolium bromide) solution in the dark and incubated for 4 hours. The supernatant was discarded, and the residue was dissolved with 150 μL of dimethyl sulfoxide for 15 min. After that, the 96-well plate was measured by a microplate reader for the absorbance (OD value). The relative cell viability was calculated as follows: relative cell viability=OD value of experimental group/OD value of control group*100%.

[2] = tested on: murine mammary carcinoma 4T1 cells; assay: Antitumor activity as sonosensitizers (SDT) on tumor-bearing mice; format: in vivo; details: for Inhibitory rate (average ± SD, %) / Tumor weight (average ± SD, g): SDT 1.0 MHz, 3.0 W/cm^2, 3 min, 6 h after dosing, 7 days after SDT; for Body weight At the beginning / Body weight At the end: SDT, mice, in g (unit assumed)
Procedure: The murine mammary carcinoma cells (4T1 line) were subjected to adherent culture. After growing to a confluence of 70%-80%, the cells in the culture flask were routinely digested, centrifuged and counted, and then resuspended with 0.85% normal saline to a density of 1×10^7 cells/mL. The cell suspension was injected into the left lateral middle axillary subcutaneous part of […] Bal b/c healthy mice (female, aged 6-8 weeks) at 0.1 mL/mouse. When the tumor diameter, which was observed every other day, reached 0.6-0.8 cm, the mice with well-growing tumors and no ulcers on the epidermis were selected for grouped treatment.
Mice with similar body weight and uniform tumor size are selected and randomly divided into 6 groups with 6 mice for each group. 48 h after inoculation, the mice were subjected to drug administration separately from the tail vein by group.
[…] 6 h after drug administration, each group of mice was anesthetized by intraperitoneal injection with 0.2 mL of 1% pentobarbital sodium. Then the mice were fixed to allow the tumor growth site exposed. The SDT group was treated using an ultrasonic therapeutic apparatus at an impulse waveform of 1.0 MHz and power of 3.0 W/cm^2 for 3 min. 7 days after SDT, the animals were sacrificed. The tumor was stripped and weighed, and the body weight was recorded.

Row | Substance | cell viability (%) ([1]; 1 μg/mL, 660 nm, 2 J/cm^2) | cell viability (%) ([1]; 1 μg/mL, 660 nm, 4 J/cm^2) | cell viability (%) ([1]; 1 μg/mL, 660 nm, 8 J/cm^2) | cell viability (%) ([1]; 1 μg/mL, no light) | cell viability (%) ([1]; 2 μg/mL, 660 nm, 2 J/cm^2) | cell viability (%) ([1]; 2 μg/mL, 660 nm, 4 J/cm^2) | cell viability (%) ([1]; 2 μg/mL, 660 nm, 8 J/cm^2) | cell viability (%) ([1]; 2 μg/mL, no light) | cell viability (%) ([1]; 5 μg/mL, 660 nm, 2 J/cm^2) | cell viability (%) ([1]; 5 μg/mL, 660 nm, 4 J/cm^2) | cell viability (%) ([1]; 5 μg/mL, 660 nm, 8 J/cm^2) | cell viability (%) ([1]; 5 μg/mL, no light) | cell viability (%) ([1]; 10 μg/mL, 660 nm, 2 J/cm^2) | cell viability (%) ([1]; 10 μg/mL, 660 nm, 4 J/cm^2) | cell viability (%) ([1]; 10 μg/mL, no light) | toxicity to the cells when the drug is used alone without photodynamic treatment ([1]; no light) | Inhibitory rate (average ± SD, %) ([2]; 2.5 mg/kg tail vein) [%] | Tumor weight (average ± SD, g) ([2]; 2.5 mg/kg tail vein) [g] | Body weight At the beginning ([2]; 2.5 mg/kg) | Body weight At the end ([2]; 2.5 mg/kg) | also measured
1 | 3-hexoxymethyl-3-devinyl-chlorin e4 disodium salt [CEFO] | 65 ± 3 | 61 ± 3 | 40 ± 2 | 101 ± 2 | 54 ± 3 | 45 ± 2 | 25 ± 2 | 107 ± 2 | 38 ± 2 | 24 ± 3 | 14 ± 4 | 109 ± 2 | 25 ± 2 | 4 ± 1 | 107 ± 2 | will not lower the cell viability | 64.3 ± 4.3 | 0.061 ± 0.007 | 20.4 ± 0.3 | 21.4 ± 0.3 | cell viability (%) ([1]; 10 μg/mL, 660 nm, 8 J/cm^2): 3 ± 2%; Inhibitory rate (average ± SD, %) ([2]; 5 mg/kg tail vein): 84.2 ± 2.9%; Tumor weight (average ± SD, g) ([2]; 5 mg/kg tail vein): 0.027 ± 0.004 g; Body weight At the beginning ([2]; 5 mg/kg): 20.2 ± 0.2; Body weight At the end ([2]; 5 mg/kg): 21.3 ± 0.2
2 | 3-n-hexylaminomethyl-3-devinyl-chlorin e4 disodium salt [CEFN] | 98 ± 3 | 99 ± 1 | 78 ± 3 | 103 ± 2 | 78 ± 3 | 62 ± 2 | 51 ± 3 | 99 ± 2 | 43 ± 3 | 32 ± 4 | 21 ± 3 | 106 ± 2 | 36 ± 3 | 17 ± 2 | 104 ± 2 | will not lower the cell viability | 42.1 ± 4.2 | 0.099 ± 0.007 | 20.5 ± 0.3 | 21.6 ± 0.2 | Inhibitory rate (average ± SD, %) ([2]; 5 mg/kg tail vein): 66.7 ± 3.0%; Tumor weight (average ± SD, g) ([2]; 5 mg/kg tail vein): 0.057 ± 0.005 g; Body weight At the beginning ([2]; 5 mg/kg): 20.3 ± 0.2; Body weight At the end ([2]; 5 mg/kg): 21.3 ± 0.3
